Test [1] concerns the target T1, biotinylated wild-type menin and MLL-AF9 fusion protein (menin/MLL binding) (Homo sapiens, UniProt O00255).
T1 construct: made in house; host or cells: menin: E. coli; MLL-AF9-FLAG: HEK293 cells, used as cleared lysate
T1 sequence (O00255 1-610): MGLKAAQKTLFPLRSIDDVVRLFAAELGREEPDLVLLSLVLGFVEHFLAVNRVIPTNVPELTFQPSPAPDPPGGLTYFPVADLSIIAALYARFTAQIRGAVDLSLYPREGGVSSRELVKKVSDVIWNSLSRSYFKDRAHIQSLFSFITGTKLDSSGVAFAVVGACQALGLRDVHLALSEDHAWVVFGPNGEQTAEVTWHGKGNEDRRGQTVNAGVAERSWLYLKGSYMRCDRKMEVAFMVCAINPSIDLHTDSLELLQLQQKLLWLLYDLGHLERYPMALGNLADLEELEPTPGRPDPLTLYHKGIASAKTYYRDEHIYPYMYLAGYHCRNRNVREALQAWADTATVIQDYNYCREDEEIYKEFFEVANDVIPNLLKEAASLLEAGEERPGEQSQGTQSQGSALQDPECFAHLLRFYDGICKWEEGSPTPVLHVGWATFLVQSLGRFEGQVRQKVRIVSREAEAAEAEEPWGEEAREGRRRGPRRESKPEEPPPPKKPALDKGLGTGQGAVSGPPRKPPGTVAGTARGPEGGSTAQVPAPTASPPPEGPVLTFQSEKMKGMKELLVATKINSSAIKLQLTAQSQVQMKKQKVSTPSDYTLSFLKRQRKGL
The experiment in a line: Assay 1: menin/MLL binding AlphaLISA assay, wild-type menin. The note with it: Table 30; column head does not say wild-type or mutated menin. The essentials:
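Compound was preincubated 30 min at room temperature with biotinylated menin (5 nM) and MLL-AF9-FLAG lysate from HEK293 cells, pH 7.4 buffer with 5% DMSO and DTT. Bead-based Alpha signal after 60 min with streptavidin donor and anti-FLAG acceptor beads; four-parameter logistic fit gave IC50.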
(In general: In Alpha technology, singlet oxygen from a donor bead excites a nearby acceptor bead.)

Test [2] relates to human acute monocytic leukemia cell line MV-4-11. As to the kind of experiment: Assay 2: cell proliferation assay (ATP quantitation, CellTiter-Glo), MV-4-11. The settings on record: Homo sapiens, MV4-11, 72 h, MV-4-11 cells. The test is classed as cell-based. An outline of the steps: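 MV-4-11 cells, 1.67×10^4 per well in medium with 10% FBS, were exposed to compound for 72 h at 37° C., 5% CO2; HL-60 cells served as toxicity control. Proliferation read as ATP content by CellTiter-Glo luminescence.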
For orientation: Cellular ATP, detected with luciferase, serves as a proxy for viable cell number.

SMILES strings stand for the structures.

By IC50 is commonly meant the concentration needed to halve the response being measured. As a reminder, the EC50 is the concentration needed to bring the measured effect to its halfway point. The low end stands for higher potency in that assay, the high end for lower potency in that assay.

Consider `N#Cc1ccc(-c2cc(F)ccc2Oc2cncnc2N2CCC3(CCN(Cc4ccc5c(c4)CC(=O)N5)C3)C2)c(C2CC2)c1` (stereo not drawn) [Example 204, 2-cyclopropyl-5′-fluoro-2′-((4-(7-((2-oxoindolin-5-yl)methyl)-2,7-diazaspiro[4.4]nonan-2-yl)pyrimidin-5-yl)oxy)-[1,1′-biphenyl]-4-carbonitrile], for which the IC50 in test [1] is less than 0.1 µM. The EC50 in test [2] was 0.1 to 1 µM.

For the molecule `CC1(C)C(=O)Nc2cc(CN3CCC4(CCN(c5ncncc5Oc5ccc(F)cc5-c5ccc(C#N)cc5C5CC5)C4)C3)ccc21` (stereo not drawn) [Example 205, 2-cyclopropyl-2′-((4-(7-((3,3-dimethyl-2-oxoindolin-6-yl)methyl)-2,7-diazaspiro[4.4]nonan-2-yl)pyrimidin-5-yl)oxy)-5′-fluoro-[1,1′-biphenyl]-4-carbonitrile], in test [1], the IC50 was less than 0.1 µM. In test [2], this molecule gave an EC50 of less than 0.1 µM.

`COC(=O)N(C)c1cc(F)ccc1Oc1cncnc1N1CCC2(CCN(Cc3ccc4[nH]c(=O)[nH]c4c3)C2)C1` (stereo not drawn) [Example 207, methyl (5-fluoro-2-((4-(7-((2-oxo-2,3-dihydro-1H-benzo[d]imidazol-5-yl)methyl)-2,7-diazaspiro[4.4]nonan-2-yl)pyrimidin-5-yl)oxy)phenyl) (methyl)carbamate] yielded an IC50 in test [1] of less than 0.1 µM. The EC50 in test [2] is 0.1 to 1 µM.

With `O=c1[nH]c2ccc(CN3CCC4(CCN(c5ncncc5Oc5ccc(F)cc5OCc5ccccc5)C4)C3)cc2[nH]1` (stereo not drawn) [Example 208, 5-((7-(5-(2-(benzyloxy)-4-fluorophenoxy)pyrimidin-4-yl)-2,7-diazaspiro [4.4]nonan-2-yl)methyl)-1,3-dihydro-2H-benzo[d]imidazol-2-one], the IC50 in test [1] was less than 0.1 µM. Further, in test [2], the EC50 was not below 1 µM.

The molecule `COc1cc(F)ccc1Oc1cncnc1N1CCC2(CCN(Cc3ccc4[nH]c(=O)[nH]c4c3)C2)C1` (stereo not drawn) [Example 209, 5-((7-(5-(4-fluoro-2-methoxyphenoxy)pyrimidin-4-yl)-2,7-diazaspiro[4.4]nonan-2-yl)methyl)-1,3-dihydro-2H-benzo[d]imidazol-2-one] had an IC50 in test [1] of less than 0.1 µM. Besides, in test [2], the EC50 fell in the range of 0.1 to 1 µM.

Consider `CC(C)N(C)C(=O)c1cc(F)ccc1Oc1cncnc1N1CCC2(CCN(Cc3ccc4c(c3)NC(=O)CO4)C2)C1` (stereo not drawn) [Example 210, 5-fluoro-N-isopropyl-N-methyl-2-((4-(7-((3-oxo-3,4-dihydro-2H-benzo[b][1,4]oxazin-6-yl)methyl)-2,7-diazaspiro[4.4]nonan-2-yl)pyrimidin-5-yl)oxy)benzamide], for which the IC50 in test [1] is less than 0.1 µM. This molecule also yielded an EC50 in test [2] of 0.1 to 1 µM.

As for `CC1CCCN1C(=O)c1cc(F)ccc1Oc1cncnc1N1CCC2(CCN(Cc3ccc4[nH]c(=O)[nH]c4c3)C2)C1` (stereo not drawn) [Example 211, 5-((7-(5-(4-fluoro-2-(2-methylpyrrolidine-1-carbonyl)phenoxy)pyrimidin-4-yl)-2,7-diazaspiro[4.4]nonan-2-yl)methyl)-1,3-dihydro-2H-benzo [d]imidazol-2-one], the IC50 in test [1] is less than 0.1 µM. The molecule further came in with an EC50 in test [2] of 0.1 to 1 µM.

Turning to `O=C(c1cc(F)ccc1Oc1cncnc1N1CCC2(CCN(Cc3ccc4[nH]c(=O)[nH]c4c3)C2)C1)N1C2CCC1CC2` (stereo not drawn) [Example 212, 5-((7-(5-(2-((1s,4s)-7-azabicyclo[2.2.1]heptane-7-carbonyl)-4-fluorophenoxy)pyrimidin-4-yl)-2,7-diazaspiro [4.4]nonan-2-yl)methyl)-1,3-dihydro-2H-benzo[d]imidazol-2-one], the IC50 in test [1] is less than 0.1 µM. This molecule also returned an EC50 in test [2] of 0.1 to 1 µM.

The molecule `CC(F)(F)c1ccccc1-c1cc(F)ccc1Oc1cncnc1N1CCC2(CCN(Cc3ccc4[nH]c(=O)[nH]c4c3)C2)C1` (stereo not drawn) [Example 213, 5-((7-(5-((2′-(1,1-difluoroethyl)-5-fluoro-[1,1′-biphenyl]-2-yl)oxy)pyrimidin-4-yl)-2,7-diazaspiro[4.4]nonan-2-yl)methyl)-1,3-dihydro-2H-benzo[d]imidazol-2-one] came in with an IC50 in test [1] of less than 0.1 µM. For the same molecule, in test [2], the EC50 is less than 0.1 µM.

The record behind these values is US12312359B2 (Vitae Pharmaceuticals, LLC, priority 2016, dated 2025).
